This passage reports Ki and inhibition results from patent EP3628672A1 (priority 2018, dated 2020).

The target of assay [1] is T1, purified LasB protein from P. aeruginosa (Pseudomonas aeruginosa, UniProt P14756).
T1 construct: purchased Merck or Charles River Laboratories
Put plainly: Fluorometric assay to determine Ki (Abz-Ala-Gly-Leu-Ala-p-Nitro-Benzyl-Amide substrate). Type of assay: biochemical. Summed up:
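Purified P. aeruginosa LasB (10–140 ng/ml) with 250 µM Abz-Ala-Gly-Leu-Ala-p-nitrobenzylamide in 50 mM Tris-HCl pH 7.4, 2.5 mM CaCl2, 0.01% Triton X100, 37 °C; hydrolysis fluorescence (Ex 340/Em 415 nm) followed over 30 min, inhibitor 0.0016–200 µM. Ki = IC50/(1+[S]/Km), Km 214 µM.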

Assay [2] concerns the target T2, LasB (Pseudomonas aeruginosa, UniProt P14756).
T2 construct: uses as source of enzyme dialysed supernatant from P. aeruginosa PAO1; endogenous in cells; host or cells: P. aeruginosa PAO1 culture supernatant, filtered and dialysed
Put plainly: Elastin assay to determine % inhibition (Elastin Congo-Red, dialysed culture supernatant). In kind it is biochemical, P. aeruginosa PAO1. The settings on record: read-out: Elastin hydrolysis % inhibition @ 50 / 25 µM inhibitor concentration. As for the experimental part:
Experiments were therefore conducted (1) to measure the potency of inhibition of compounds of the invention against purified Pseudomonas aeruginosa LasB enzyme and also experiments were conducted (2) to measure the ability of compounds of the invention to inhibit LasB-catalysed elastin degradation. The first assay uses a commercial fluorescent synthetic peptide and purified LasB enzyme. The LasB hydrolysis kinetics are measured allowing the determination of the IC50 and Ki of the inhibitors; the second is a more physiological assay using dialysed Pseudomonas aeruginosa supernatant as source of enzyme, plus its natural substrate Elastin. It is an "end point assay" that determines the percentage of LasB inhibition by each compound for one particular time point and inhibitor concentration. Technical details are described below:
The Elastin assay uses as source of enzyme dialysed supernatant from P. aeruginosa PAO1 and the Elastin Congo-Red as substrate. The natural LasB substrate, elastin, is complexed with the congo-red dye (Elastin Congo-Red, ECR). The elastolysis activity from the culture supernatant will degrade elastin and release the congo-red dye into the supernatant. This red dye release can be measured with a spectrophotometer.
Method: To determine LasB elastase activity and assess compound inhibition, an overnight culture of P. aeruginosa strain PAO1 is diluted in LB medium. After reaching an OD600nm of 0.6, this culture is diluted and incubated for additional 18-24 hours in a shaking incubator. Culture supernatants are recovered by centrifugation and filtrated through a […] filter. These supernatants are dialysed (filtration molecules < 20kDa) into a 50 mM Tris-HCl pH 7.4, 2.5 mM CaCl2 solution at 4°C under agitation for 24 hours. Supernatant dialysed is then mixed volume/volume with the ECR suspension (20 mg/mL of ECR in 100 mM Tris-HCl pH 7.4 buffer supplemented with 1 mM CaCl2) supplemented with Triton X100 (final concentration of 0.01%) in presence of DMSO (positive control) and/or different concentrations of compound (routinely 50 to 1.56 µM). As a negative control, the dialysed supernatant is replaced by Tris-HCl solution (50 mM Tris-HCl pH 7.4, 2.5 mM CaCl2). The mixed reaction is then incubated overnight in a 37°C shaking incubator. The reaction supernatant is recovered by centrifugation and the release of congo-red is measured by its absorbance at 495 nm (OD495nm).
Percentage inhibition is determined using the following equation: ((OD495nmvalue of positive control−OD495nmvalue of negative control)−(OD495nmvalue of treated supernatant−OD495nmvalue of positive control))/(OD495nmvalue of positive control−OD495nmvalue of negative control) × 100. [formula]

SMILES strings stand for the structures. Where two headings read alike, the source gives them in different places. Some results are limits rather than exact numbers.

T1 sequence (P14756 198-498): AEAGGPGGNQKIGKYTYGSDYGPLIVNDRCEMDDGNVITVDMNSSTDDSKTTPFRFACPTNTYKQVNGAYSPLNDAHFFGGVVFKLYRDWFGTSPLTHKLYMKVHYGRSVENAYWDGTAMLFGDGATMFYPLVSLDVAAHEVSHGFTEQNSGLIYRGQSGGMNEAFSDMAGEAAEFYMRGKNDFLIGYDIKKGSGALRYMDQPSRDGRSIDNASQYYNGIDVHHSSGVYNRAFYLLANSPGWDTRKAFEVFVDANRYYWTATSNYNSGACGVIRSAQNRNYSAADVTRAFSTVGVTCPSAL
T2 sequence (P14756 198-498): as above

One may read the Ki as a dissociation constant, usually derived from enzyme kinetics or from competition with a known ligand. For the compound `O=C(O)CC1(C(=O)NCc2nc(-c3ccc(O)cc3)cs2)Cc2ccccc2C1` [Example 11, 2-[2-[[4-(4-hydroxyphenyl)thiazol-2-yl]methylcarbamoyl]indan-2-yl]acetic acid], in assay [1], the Ki lay within 50 to 200 nM. In addition, the inhibition at 25 µM in assay [2] lay in the range of 60 to 75%.
Turning to `COc1ccc(S(=O)(=O)N2CCC([N+](C)(C)C)CC2)cc1-c1csc(CNC(=O)C2(CC(=O)[O-])Cc3cc(F)c(F)cc3C2)n1` [Example 126, 2-[5,6-difluoro-2-[[4-[2-methoxy-5-[[4-(trimethylammonio)-1-piperidyl]sulfonyl]phenyl]thiazol-2-yl]methylcarbamoyl]indan-2-yl]acetate], the Ki in assay [1] is 50 to 200 nM. Also, the inhibition at 25 µM in assay [2] was in the range of 60 to 75%.
For the compound `CN(C)CCNC(=O)c1ccc(-c2csc(CNC(=O)C3(CC(=O)O)Cc4ccccc4C3)n2)cc1` [Example 15, 2-[2-[[4-[4-[2-(dimethylamino)ethylcarbamoyl]phenyl]thiazol-2-yl]methylcarbamoyl]indan-2-yl]acetic acid], the Ki in assay [1] was 200 to 10000 nM. In assay [2], the inhibition at 25 µM was in the range of 60 to 75%.
For `COc1ccc(-c2csc(CNC(=O)C3(CC(=O)O)Cc4ccccc4C3)n2)cc1S(=O)(=O)N1CCN(C)CC1` [Example 122], the Ki in assay [1] (Ki calculated from IC50, [S] = 250 µM, Km = 214 µM, 37°C, pH 7.4) is 50 to 200 nM. In addition, the inhibition at 25 µM in assay [2] was over 75%.
On to `COc1cc(N2CC(N(C)C)C2)ccc1-c1csc(CNC(=O)C2(CC(=O)O)Cc3ccccc3C2)n1` [Example 32, 2-[2-[[4-[4-[3-(dimethylamino)azetidin-1-yl]-2-methoxy-phenyl]thiazol-2-yl]methylcarbamoyl]indan-2-yl]acetic acid], for which, in assay [1], the Ki lay in the range of 50 to 200 nM. The inhibition at 25 µM in assay [2] was over 75%.
In turn, `O=C(O)CC1(C(=O)NCc2nc(-c3ccc(OCc4ccncc4)nc3)cs2)Cc2ccccc2C1` [Example 142, 2-[2-[[4-[6-(4-pyridylmethoxy)-3-pyridyl]thiazol-2-yl]methylcarbamoyl]indan-2-yl]acetic acid] registered a Ki in assay [1] of under 50 nM. In addition, the inhibition at 25 µM in assay [2] was over 75%.
In turn, `O=C(O)CC1(C(=O)NCc2nc(-c3ccccc3OCCO)cs2)Cc2ccccc2C1` [Example 13, 2-[2-[[4-[2-(2-hydroxyethoxy)phenyl]thiazol-2-yl]methylcarbamoyl]indan-2-yl]acetic acid] came in with a Ki in assay [1] of 50 to 200 nM. In addition, in assay [2], the inhibition at 25 µM lay in the range of 60 to 75%.
Consider `CN1CCN(c2ccc(-c3csc(CNC(=O)C4(CC(=O)O)Cc5ccccc5C4)n3)cc2)CC1` [Example 26, 2-[2-[[4-[4-(4-methylpiperazin-1-yl)phenyl]thiazol-2-yl]methylcarbamoyl]indan-2-yl]acetic acid], for which the Ki in assay [1] was 50 to 200 nM. The inhibition at 25 µM in assay [2] is 60 to 75%.
In the same order, the values of `CN(C)[C@@H]1CCN(C(=O)c2ccc(-c3csc(CNC(=O)C4(CC(=O)O)Cc5ccccc5C4)n3)cc2)C1` [Example 19, 2-[2-[[4-[4-[(3R)-3-(dimethylamino)pyrrolidine-1-carbonyl]phenyl]thiazol-2-yl]methylcarbamoyl]indan-2-yl]acetic acid] are 200 to 10000 nM and 60 to 75%.
As for `COc1cc(OCC(=O)N2CC[N+](C)(C)CC2)ccc1-c1csc(CNC(=O)C2(CC(=O)[O-])Cc3ccccc3C2)n1` [Example 79, 2-[2-[[4-[4-[2-(4,4-dimethylpiperazin-4-ium-1-yl)-2-oxo-ethoxy]-2-methoxy-phenyl]thiazol-2-yl]methylcarbamoyl]indan-2-yl]acetate], in assay [1], the Ki lay in the range of 50 to 200 nM. For the same compound, in assay [2], the inhibition at 25 µM was 60 to 75%.
On the same counts, the results for `CN1CCN(C(=O)COc2ccc(-c3csc(CNC(=O)C4(CC(=O)O)Cc5ccccc5C4)n3)cc2)CC1` [Example 46, 2-[2-[[4-[4-[2-(4-methylpiperazin-1-yl)-2-oxo-ethoxy]phenyl]thiazol-2-yl]methylcarbamoyl]indan-2-yl]acetic acid] are 50 to 200 nM and over 75%.
`CN1CCN(C(=O)Nc2ccc(-c3csc(CNC(=O)C4(CC(=O)O)Cc5ccccc5C4)n3)cc2)CC1` [Example 44, 2-[2-[[4-[4-[(4-methylpiperazine-1-carbonyl)amino]phenyl]thiazol-2-yl]methylcarbamoyl]indan-2-yl]acetic acid] showed a Ki in assay [1] of 50 to 200 nM. Also, the inhibition at 25 µM in assay [2] fell in the range of 60 to 75%.
Consider `CN1CCN(C(=O)c2cccc(-c3csc(CNC(=O)C4(CC(=O)O)Cc5ccccc5C4)n3)c2)CC1` [Example 23, 2-[2-[[4-[3-(4-methylpiperazine-1-carbonyl)phenyl]thiazol-2-yl]methylcarbamoyl]indan-2-yl]acetic acid], for which the Ki in assay [1] was 200 to 10000 nM. Further, the inhibition at 25 µM in assay [2] fell in the range of 60 to 75%.
In the same order, the values of `C[N+]1(CCCOc2ccc(-c3csc(CNC(=O)C4(CC(=O)[O-])Cc5cc(F)c(F)cc5C4)n3)cc2S(C)(=O)=O)CCOCC1` [Example 62, 2-[5,6-difluoro-2-[[4-[4-[3-(4-methylmorpholin-4-ium-4-yl)propoxy]-3-methylsulfonyl-phenyl]thiazol-2-yl]methylcarbamoyl]indan-2-yl]acetate] are 50 to 200 nM and 60 to 75%.
In assay [1], `CN1CCN(c2cccc(-c3csc(CNC(=O)C4(CC(=O)O)Cc5ccccc5C4)n3)c2)CC1` [Example 28, 2-[2-[[4-[3-(4-methylpiperazin-1-yl)phenyl]thiazol-2-yl]methylcarbamoyl]indan-2-yl]acetic acid] gave a Ki of 200 to 10000 nM. Besides, the inhibition at 25 µM in assay [2] was 60 to 75%.
On the same counts, the results for `O=C(O)CC1(C(=O)NCc2nc(-c3ccc(OCCCN4CCCC4)cc3)cs2)Cc2ccccc2C1` [Example 58, 2-[2-[[4-[4-(3-pyrrolidin-1-ylpropoxy)phenyl]thiazol-2-yl]methylcarbamoyl]indan-2-yl]acetic acid] are 50 to 200 nM and 60 to 75%.
For `O=C([O-])CC1(C(=O)NCc2nc(-c3ccc(OCCC[n+]4ccccc4)cc3)cs2)Cc2ccccc2C1` [Example 59, 2-[2-[[4-[4-(3-pyridm-1-ium-1-ylpropoxy)phenyl]thiazol-2-yl]methylcarbamoyl]indan-2-yl]acetate], in assay [1], the inhibition constant Ki was in the range of 50 to 200 nM. Also, the inhibition at 25 µM in assay [2] is 60 to 75%.
On the same counts, the results for `COc1cc(OCC(=O)N2CCN(C)CC2)ccc1-c1csc(CNC(=O)C2(CC(=O)O)Cc3ccccc3C2)n1` [Example 63, 2-[2-[[4-[2-methoxy-4-[2-(4-methylpiperazin-1-yl)-2-oxo-ethoxy]phenyl]thiazol-2-yl]methylcarbamoyl]indan-2-yl]acetic acid] are 50 to 200 nM and over 75%.
For the compound `COc1cc(OCc2cccnc2)ccc1-c1csc(CNC(=O)C2(CC(=O)O)Cc3ccccc3C2)n1` [Example 78, 2-[2-[[4-[2-methoxy-4-(3-pyridylmethoxy)phenyl]thiazol-2-yl]methylcarbamoyl]indan-2-yl]acetic acid], the Ki in assay [1] was under 50 nM. In addition, the inhibition at 25 µM in assay [2] was over 75%.
`CN(C)C1CCN(S(=O)(=O)c2cc(-c3csc(CNC(=O)C4(CC(=O)O)Cc5cc(F)c(F)cc5C4)n3)ccc2OCCCN2CCCC2)CC1` [Example 139, 2-[2-[[4-[3-[[4-(dimethylamino)-1-piperidyl]sulfonyl]-4-(3-pyrrolidin-1-ylpropoxy)phenyl]thiazol-2-yl]methylcarbamoyl]-5,6-difluoro-indan-2-yl]acetic acid] came in with a Ki in assay [1] of 50 to 200 nM. In addition, the inhibition at 25 µM in assay [2] is 10 to 60%.
Take `CN1CCC(C(=O)Nc2ccc(-c3csc(CNC(=O)C4(CC(=O)O)Cc5ccccc5C4)n3)cc2)CC1` [Example 43, 2-[2-[[4-[4-[(1-methylpiperidine-4-carbonyl)amino]phenyl]thiazol-2-yl]methylcarbamoyl]indan-2-yl]acetic acid]: the Ki in assay [1] lay within 200 to 10000 nM. The inhibition at 25 µM in assay [2] was 60 to 75%.
